Measurements from US20140315975A1, “APOPTOSIS-INDUCING AGENT” (NITTO DENKO CORPORATION, priority 2011, published 2014).
Residues, ends and D or L forms follow the SMILES beside them. *: point of attachment. Cbz = O=C(OCc1ccccc1)*

Tests used:
Assay type in all cases: cell-based
p-EGFR (Tyr1068) = assay: Effect of proteasome inhibitor on p-EGFR expression under GST-π knockdown; details: GST-π KD cells, 5 μM MG132 for 2 hours (FIG. 12)
Description: Culturing of M7609 cells and transfection with GST-π siRNA were carried out in accordance with the procedures of Example 1 (1) and (2). On the 2nd day after transfection with GST-π siRNA, the cells were cultured in serum-free medium for 16 hours. After treating with 5 μM MG132 for 2 hours, a cell extract was collected. As a control for the MG132 treatment, treatment with 0.05% DMSO was carried out in the same manner. The cell extract thus obtained was subjected to quantitative protein analysis using a Micro BCA Protein Assay Kit (Scramble siRNA-DMSO treated group: 11.98 μg/μL, Scramble siRNA-MG132 treated group: 12.29 μg/μL, GST-π siRNA-DMSO treated group: 8.91 μg/μL, GST-π siRNA-MG132 treated group: 9.24 μg/μL). After 80 μg of the cell extract was subjected to SDS-PAGE, a western blot analysis was carried out using anti-p-EGFR (Tyr1068) antibody and anti-EGFR antibody.

p-Raf-1 (Ser338) = assay: Effect of proteasome inhibitor on Raf-1 expression under GST-π knockdown; details: 5 μM MG132 for 4 hours versus DMSO (FIG. 4)
Description: Culturing of M7609 cells and transfection with GST-π siRNA were carried out in accordance with the procedures of Example 1 (1) and (2). On the 2nd day after GST-π siRNA transfection culturing was carried out for 16 hours in a serum-free medium. After treating with 5 μM MG132 for 4 hours, a cell extract was collected. As a control for the MG132 treatment, treatment with 0.05% DMSO was carried out in the same manner. The cell extract thus obtained was subjected to quantitative protein analysis using a Micro BCA Protein Assay Kit (Scramble siRNA-DMSO treated group: 3.36 μg/μL, Scramble siRNA-MG132 treated group: 3.16 μg/μL, GST-π siRNA-DMSO treated group: 3.12 μg/μL, GST-π siRNA-MG132 treated group: 3.16 μg/μL). 20 μg of the cell extract was subjected to SDS-PAGE, and then western blot analysis was carried out in the same way as for Example 1 (3) using an anti-p-Raf-1 (Ser338) antibody and an anti-Raf-1 antibody.

M7609 cells [1] = assay: Autophagy-positive cells in GST-π knockdown cells with autophagy inhibitor (LC3 immunofluorescence); details: GST-π KD M7609 cells + 3-MA (FIG. 16)
Description: (§1) Transfection of GST-π siRNA was carried out in accordance with the procedure of Example 1 (2), the medium was then replaced with an antibiotic-free medium, and incubation was carried out for 3 hours. Cells were plated on a cover slip placed in a 35 mm plastic tissue culture dish, the autophagy inhibitor 3-methyl adenine (3-MA, SIGMA) was added so as to give 1 or 5 mM, and following this culturing was carried out for a predetermined time.
The cells cultured in (1) were subjected to immunofluorescence staining using anti-LC3 antibody in the same way as for Example 3 (1).

M7609 cells [2] = assay: TUNEL staining of GST-π knockdown cells with autophagy inhibitor; details: GST-π siRNA + 1 mM or 5 mM 3-MA
Description: as §1
The cells cultured in (1) were subjected to TUNEL staining in the same way as for Example 3 (4).

LC3 = assay: Autophagy induction by LC3 western blotting; details: M7609 cells, western blot with anti-LC3 antibody (FIG. 8)
Description: Induction of autophagy in GST-π knockdown cells was further analyzed by a western blot analysis of LC3. GST-π knockdown cells obtained by the procedure of Example 1 (2) were plated on a cover slip placed in a 35 mm plastic tissue culture dish so as to give 1×10^5 cells/2 mL. After incubating for a predetermined time, a cell extract was collected and subjected to a western blot analysis. A reaction with a transfer membrane was carried out at 4° C. for 16 hours using anti-LC3B antibody (SIGMA) as a primary antibody. Detection of LC3 molecules was carried out using a chemoluminescent reagent after a reaction with HRP-labeled secondary antibody. Whether or not autophagy was induced was evaluated by a shift of LC3 from type I (18 kDa) to type II (16 kDa).

GST-π = assay: Western blot analysis of GST-π knockdown; details: M7609 cells, siRNA transfection, western blot (FIG. 1a)
Description: On the day before transfection, M7609 cells were plated on a 100 mm plastic tissue culture dish using 10% FBS-containing RPMI-1640 medium containing no antibiotic so as to give 1×10^6 cells/10 mL. 600 pmol of GST-π siRNA (SEQ ID No: 1: […], siRNA ID#2385, Ambion) was added to 1 mL of Opti-MEM I Reduced Serum Medium (GIBCO) and mixed gently. Subsequently, 35 μL of Lipofectamine RNAiMAX (Invitrogen) was diluted in 1 mL of Opti-MEM I Reduced Serum Medium and mixed gently. The diluted GST-π siRNA and the diluted Lipofectamine RNAiMAX were combined and gently mixed, and then incubated at room temperature for 10 min. During this time, the medium was replaced with 10 mL of Opti-MEM I Reduced Serum Medium. After the 10 min. incubation, the complex between GST-π siRNA and Lipofectamine RNAiMAX was added to the cells and incubated at 37° C. under an atmosphere containing 5% CO2. After 5 hours incubation, it was replaced with 10 mL of 10% FBS-containing RPMI-1640 medium containing no antibiotic. […] On the 1st, 2nd, 3rd, and 4th days after transfection with GST-π siRNA, the number of cells was counted, and knockdown of GST-π was examined. Knockdown of GST-π was analyzed by a western blot method as described below.
Western blot analysis of GST-π knockdown was carried out using cells harvested at above-mentioned each point of time after transfection with GST-π siRNA. […] The cell extract thus obtained was subjected to quantitative protein analysis using a Micro BCA Protein Assay Kit (Thermo SCIENTIFIC) (GST-π siRNA transfectant: 4.35 μg/μL, Scramble siRNA transfectant: 4.56 μg/μL). […] A reaction with a chemiluminescent substrate was then carried out at room temperature for 1 min., and then this chemiluminescence was detected using an X-ray film. Washing between operations was carried out three times by shaking for 5 min using PBS-T. Furthermore, after transfection with siRNA, plating on a 60 mm plastic tissue culture dish was carried out to give 1.0×10^5 cells/5 mL, and the total cell count in the dish was measured using a hemocytometer up to the 4th day.

CC(C)C[C@@H](C=O)NC(=O)[C@H](CC(C)C)NC(=O)[C@H](CC(C)C)NC(=O)OCc1ccccc1 [MG132] (Cbz-Leu-Leu-Leu-aldehyde)
expression level of p-EGFR (p-EGFR (Tyr1068)): recovered | abundance of phosphorylated Raf protein (p-Raf-1 (S338)) (p-Raf-1 (Ser338); GST-π siRNA transfectant): increased | abundance of phosphorylated Raf protein (p-Raf-1 (S338)) (p-Raf-1 (Ser338); Scramble siRNA transfectant): no change

Cn1cnc(N)c2ncnc1-2 [3-MA, 3-methyladenine]
autophagy increased by knockdown of GST-π (proportion of autophagy-positive cells) (M7609 cells [1]): suppressed | apoptosis-positive cells (TUNEL stained images) (M7609 cells [2]; 2nd to 4th day (FIG. 17 versus FIG. 9)): increased markedly | induction of apoptosis (percentage apoptosis over time) (M7609 cells [2]; dose-dependent (FIG. 18)): further induced

Scramble siRNA: control Scramble siRNA (SEQ ID No: 2: CGAUUCGCUAGACCGGCUUCAUUGCAG, Hokkaido System Science Co., Ltd.) (chemistry not given here) [reference compound]
expression of type I and type II LC3 (LC3): low | expression of GST-π (GST-π): not suppressed
